In patent US11178873B2, “Cyclic N-carboxamide compounds useful as herbicides” (FMC CORPORATION, priority 2015, dated 2021):

Legend:
Format in all cases: in vivo
[1] = tested on: barnyardgrass (Echinochloa crus-galli); assay: Test A preemergence, barnyardgrass; conditions: 0 to 100 scale, 0 no effect, 100 complete control
Text: (§1) Seeds of plant species selected from barnyardgrass (Echinochloa crus-galli), crabgrass, large (large crabgrass, Digitaria sanguinalis), kochia (Kochia scoparia), ragweed (common ragweed, Ambrosia elatior), morningglory (Ipomoea spp.), velvetleaf (Abutilon theophrasti), ryegrass, Italian (Italian ryegrass, Lolium multiflorum), foxtail, giant (giant foxtail, Setaria faberii), wheat (Triticum aestivum), corn (Zea mays), and pigweed (Amaranthus retroflexus), were planted into a blend of loam soil and sand and treated preemergence with a directed soil spray using test chemicals formulated in a non-phytotoxic solvent mixture which included a surfactant. At the same time, plants selected from these crop and weed species and also blackgrass (Alopecurus myosuroides), and galium (catchweed bedstraw, Galium aparine), were planted in pots containing the same blend of loam soil and sand and treated with postemergence applications of test chemicals formulated in the same manner. Plants ranged in height from 2 to 10 cm and were in the one- to two-leaf stage for the postemergence treatment. Treated plants and untreated controls were maintained in a greenhouse for approximately 10 d, after which time all treated plants were compared to untreated controls and visually evaluated for injury. Plant response ratings, summarized in Table A, are based on a 0 to 100 scale where 0 is no effect and 100 is complete control. A dash (-) response means no test result.

kochia (Kochia scoparia) [2] = assay: Test A preemergence, kochia; conditions: 0 to 100 scale, 0 no effect, 100 complete control
Text: as §1

[3] = tested on: ragweed (common ragweed, Ambrosia elatior); assay: Test A preemergence, ragweed; conditions: 0 to 100 scale, 0 no effect, 100 complete control
Text: as §1

[4] = tested on: ryegrass, Italian (Italian ryegrass, Lolium multiflorum); assay: Test A preemergence, ryegrass, Italian; conditions: 0 to 100 scale, 0 no effect, 100 complete control
Text: as §1

[5] = tested on: foxtail, giant (giant foxtail, Setaria faberii); assay: Test A preemergence, foxtail, giant; conditions: 0 to 100 scale, 0 no effect, 100 complete control
Text: as §1

[6] = tested on: pigweed (Amaranthus retroflexus); assay: Test A preemergence, pigweed; conditions: 0 to 100 scale, 0 no effect, 100 complete control
Text: as §1

[7] = tested on: barnyardgrass (Echinochloa crus-galli); assay: Test A postemergence, barnyardgrass; conditions: 0 to 100 scale, 0 no effect, 100 complete control
Text: as §1

kochia (Kochia scoparia) [8] = assay: Test A postemergence, kochia; conditions: 0 to 100 scale, 0 no effect, 100 complete control
Text: as §1

[9] = tested on: ragweed (common ragweed, Ambrosia elatior); assay: Test A postemergence, ragweed; conditions: 0 to 100 scale, 0 no effect, 100 complete control
Text: as §1

[10] = tested on: ryegrass, Italian (Italian ryegrass, Lolium multiflorum); assay: Test A postemergence, ryegrass, Italian; conditions: 0 to 100 scale, 0 no effect, 100 complete control
Text: as §1

[11] = tested on: foxtail, giant (giant foxtail, Setaria faberii); assay: Test A postemergence, foxtail, giant; conditions: 0 to 100 scale, 0 no effect, 100 complete control
Text: as §1

[12] = tested on: wheat (Triticum aestivum); assay: Test A postemergence, wheat; conditions: 0 to 100 scale, 0 no effect, 100 complete control
Text: as §1

corn (Zea mays) = assay: Test A postemergence, corn; conditions: 0 to 100 scale, 0 no effect, 100 complete control
Text: as §1

[13] = tested on: pigweed (Amaranthus retroflexus); assay: Test A postemergence, pigweed; conditions: 0 to 100 scale, 0 no effect, 100 complete control
Text: as §1

[14] = tested on: blackgrass (Alopecurus myosuroides); assay: Test A postemergence, blackgrass; conditions: 0 to 100 scale, 0 no effect, 100 complete control
Text: as §1

[15] = tested on: galium (catchweed bedstraw, Galium aparine); assay: Test A postemergence, galium; conditions: 0 to 100 scale, 0 no effect, 100 complete control
Text: as §1

[16] = tested on: barnyardgrass (Echinochloa crus-galli); assay: Test B flooded paddy test, barnyardgrass; conditions: Flood, scale 0 to 100 (0 no effect, 100 complete control), 13 to 15 d
Method: (§2) Plant species in the flooded paddy test selected from rice (Oryza sativa), sedge, umbrella (small-flower umbrella sedge, Cyperus difformis), ducksalad (Heteranthera limosa), and barnyardgrass (Echinochloa crus-galli) were grown to the 2-leaf stage for testing. At time of treatment, test pots were flooded to 3 cm above the soil surface, treated by application of test compounds directly to the paddy water, and then maintained at that water depth for the duration of the test. Treated plants and controls were maintained in a greenhouse for 13 to 15 d, after which time all species were compared to controls and visually evaluated. Plant response ratings, summarized in Table B, are based on a scale of 0 to 100 where 0 is no effect and 100 is complete control. A dash (-) response means no test result.

[17] = tested on: ducksalad (Heteranthera limosa); assay: Test B flooded paddy test, ducksalad; conditions: Flood, scale 0 to 100 (0 no effect, 100 complete control), 13 to 15 d
Method: as §2

rice (Oryza sativa) = assay: Test B flooded paddy test, rice; conditions: Flood, scale 0 to 100 (0 no effect, 100 complete control), 13 to 15 d
Method: as §2

[18] = tested on: sedge, umbrella (small-flower umbrella sedge, Cyperus difformis); assay: Test B flooded paddy test, sedge, umbrella; conditions: Flood, scale 0 to 100 (0 no effect, 100 complete control), 13 to 15 d
Method: as §2

Compound	Plant response rating, Barnyardgrass ([1]; 31 g ai/ha)	Plant response rating, Barnyardgrass ([1]; 125 g ai/ha)	Plant response rating, Kochia (kochia (Kochia scoparia) [2]; 31 g ai/ha)	Plant response rating, Kochia (kochia (Kochia scoparia) [2]; 125 g ai/ha)	Plant response rating, Ragweed ([3]; 31 g ai/ha)	Plant response rating, Ragweed ([3]; 125 g ai/ha)	Plant response rating, Ryegrass, Italian ([4]; 31 g ai/ha)	Plant response rating, Ryegrass, Italian ([4]; 125 g ai/ha)	Plant response rating, Foxtail, Giant ([5]; 125 g ai/ha)	Plant response rating, Pigweed ([6]; 125 g ai/ha)	Plant response rating, Barnyardgrass ([7]; 125 g ai/ha)	Plant response rating, Kochia (kochia (Kochia scoparia) [8]; 125 g ai/ha)	Plant response rating, Ragweed ([9]; 125 g ai/ha)	Plant response rating, Ryegrass, Italian ([10]; 125 g ai/ha)	Plant response rating, Foxtail, Giant ([11]; 125 g ai/ha)	Plant response rating, Wheat ([12]; 125 g ai/ha)	Plant response rating, Corn (corn (Zea mays); 125 g ai/ha)	Plant response rating, Pigweed ([13]; 125 g ai/ha)	Plant response rating, Blackgrass ([14]; 125 g ai/ha)	Plant response rating, Galium ([15]; 125 g ai/ha)	further results
CN1CC(c2cccc(C(F)(F)F)c2)N(C(=O)Nc2cccc(F)c2F)C1=O (stereo not drawn) [Compound 18]	20	70	0	0	0	0	0	0	80	0	30	0	0	0	50	0	0	0	0	0	Plant response rating, Foxtail, Giant ([5]; 31 g ai/ha): 70; Plant response rating, Pigweed ([6]; 31 g ai/ha): 0; Plant response rating, Barnyardgrass ([7]; 31 g ai/ha): 10; Plant response rating, Kochia (kochia (Kochia scoparia) [8]; 31 g ai/ha): 0; Plant response rating, Ragweed ([9]; 31 g ai/ha): 0; Plant response rating, Ryegrass, Italian ([10]; 31 g ai/ha): 0; Plant response rating, Foxtail, Giant ([11]; 31 g ai/ha): 10; Plant response rating, Wheat ([12]; 31 g ai/ha): 0; Plant response rating, Corn (corn (Zea mays); 31 g ai/ha): 0; Plant response rating, Pigweed ([13]; 31 g ai/ha): 0; Plant response rating, Blackgrass ([14]; 31 g ai/ha): 0; Plant response rating, Galium ([15]; 31 g ai/ha): 0; Plant response rating, Barnyardgrass ([16]; 250 g ai/ha): 0; Plant response rating, Ducksalad ([17]; 250 g ai/ha): 65; Plant response rating, Rice (rice (Oryza sativa); 250 g ai/ha): 0; Plant response rating, Sedge, Umbrella ([18]; 250 g ai/ha): 0
O=C1CCC(c2ccc(Cl)cc2)N1C(=O)Nc1ccc(F)c(F)c1F (stereo not drawn) [Compound 22]	0	0	0	0	0	0	0	0	0	0	0	0	0	0	0	0	0	0	0	0	Plant response rating, Foxtail, Giant ([5]; 31 g ai/ha): 0; Plant response rating, Pigweed ([6]; 31 g ai/ha): 0; Plant response rating, Barnyardgrass ([7]; 31 g ai/ha): 0; Plant response rating, Kochia (kochia (Kochia scoparia) [8]; 31 g ai/ha): 0; Plant response rating, Ragweed ([9]; 31 g ai/ha): 0; Plant response rating, Ryegrass, Italian ([10]; 31 g ai/ha): 0; Plant response rating, Foxtail, Giant ([11]; 31 g ai/ha): 0; Plant response rating, Wheat ([12]; 31 g ai/ha): 0; Plant response rating, Corn (corn (Zea mays); 31 g ai/ha): 0; Plant response rating, Pigweed ([13]; 31 g ai/ha): 0; Plant response rating, Blackgrass ([14]; 31 g ai/ha): 0; Plant response rating, Galium ([15]; 31 g ai/ha): 0; Plant response rating, Barnyardgrass ([16]; 250 g ai/ha): 0; Plant response rating, Ducksalad ([17]; 250 g ai/ha): 0; Plant response rating, Rice (rice (Oryza sativa); 250 g ai/ha): 0; Plant response rating, Sedge, Umbrella ([18]; 250 g ai/ha): 0
O=C1NCC(c2ccc(F)c(F)c2)N1C(=O)Nc1ccccc1Cl (stereo not drawn) [Compound 9]	–	0	–	0	–	0	–	0	0	0	0	0	0	0	0	0	0	0	0	0	Plant response rating, Barnyardgrass ([1]; 500 g ai/ha): 0; Plant response rating, Kochia (kochia (Kochia scoparia) [2]; 500 g ai/ha): 0; Plant response rating, Ragweed ([3]; 500 g ai/ha): 0; Plant response rating, Ryegrass, Italian ([4]; 500 g ai/ha): 0; Plant response rating, Foxtail, Giant ([5]; 500 g ai/ha): 0; Plant response rating, Pigweed ([6]; 500 g ai/ha): 0; Plant response rating, Barnyardgrass ([7]; 500 g ai/ha): 0; Plant response rating, Kochia (kochia (Kochia scoparia) [8]; 500 g ai/ha): 0; Plant response rating, Ragweed ([9]; 500 g ai/ha): 0; Plant response rating, Ryegrass, Italian ([10]; 500 g ai/ha): 0; Plant response rating, Foxtail, Giant ([11]; 500 g ai/ha): 0; Plant response rating, Wheat ([12]; 500 g ai/ha): 0; Plant response rating, Corn (corn (Zea mays); 500 g ai/ha): 0; Plant response rating, Pigweed ([13]; 500 g ai/ha): 0; Plant response rating, Blackgrass ([14]; 500 g ai/ha): 0; Plant response rating, Galium ([15]; 500 g ai/ha): 0; Plant response rating, Barnyardgrass ([16]; 500 g ai/ha): 0; Plant response rating, Ducksalad ([17]; 500 g ai/ha): 0; Plant response rating, Rice (rice (Oryza sativa); 500 g ai/ha): 0; Plant response rating, Sedge, Umbrella ([18]; 500 g ai/ha): 0
